Measured values as given in ChEMBL document CHEMBL4706583, “2-Anilinoquinoline based arylamides as broad spectrum anticancer agents with B-RAF/C-RAF kinase inhibitory effects: Design, synthesis, in vitro cell-based and oncogenic kinase assessments” (Eur J Med Chem, 2020).

Legend:
[1] = system: HL-60(TB); assay: Growth inhibition of human HL-60(TB) cells measured after 48 hrs by SRB assay; assay type: functional
[2] = system: RPMI-8226; assay: Growth inhibition of human RPMI-8226 cells measured after 48 hrs by SRB assay; assay type: functional
[3] = system: A549; assay: Growth inhibition of human A549 cells measured after 48 hrs by SRB assay; assay type: functional
[4] = system: HOP-62; assay: Growth inhibition of human HOP-62 cells measured after 48 hrs by SRB assay; assay type: functional
[5] = system: NCI-H322M; assay: Growth inhibition of human NCI-H322M cells measured after 48 hrs by SRB assay; assay type: functional
[6] = system: NCI-H460; assay: Growth inhibition of human NCI-H460 cells measured after 48 hrs by SRB assay; assay type: functional
[7] = system: HCT-15; assay: Growth inhibition of human HCT-15 cells measured after 48 hrs by SRB assay; assay type: functional
[8] = system: SW-620; assay: Growth inhibition of human SW-620 cells measured after 48 hrs by SRB assay; assay type: functional
[9] = system: SF-295; assay: Growth inhibition of human SF-295 cells measured after 48 hrs by SRB assay; assay type: functional
[10] = system: SNB-19; assay: Growth inhibition of human SNB-19 cells measured after 48 hrs by SRB assay; assay type: functional
[11] = system: SNB-75; assay: Growth inhibition of human SNB-75 cells measured after 48 hrs by SRB assay; assay type: functional
[12] = system: SK-MEL-2; assay: Growth inhibition of human SK-MEL-2 cells measured after 48 hrs by SRB assay; assay type: functional
[13] = system: OVCAR-3; assay: Growth inhibition of human OVCAR-3 cells measured after 48 hrs by SRB assay; assay type: functional
[14] = system: OVCAR-4; assay: Growth inhibition of human OVCAR-4 cells measured after 48 hrs by SRB assay; assay type: functional
[15] = system: NCI/ADR-RES; assay: Growth inhibition of human NCI/ADR-RES cells measured after 48 hrs by SRB assay; assay type: functional
[16] = system: SK-OV-3; assay: Growth inhibition of human SK-OV-3 cells measured after 48 hrs by SRB assay; assay type: functional
[17] = system: A498; assay: Growth inhibition of human A498 cells measured after 48 hrs by SRB assay; assay type: functional
[18] = system: TK-10; assay: Growth inhibition of human TK-10 cells measured after 48 hrs by SRB assay; assay type: functional
[19] = system: MCF7; assay: Growth inhibition of human MCF7 cells measured after 48 hrs by SRB assay; assay type: functional
[20] = system: Hs-578T; assay: Growth inhibition of human Hs-578T cells measured after 48 hrs by SRB assay; assay type: functional
[21] = system: T47D; assay: Growth inhibition of human T47D cells measured after 48 hrs by SRB assay; assay type: functional
[22] = Cytotoxicity against human L132 cells assessed as cell viability at 1 uM measured after 48 hrs by EZ-Cytox assay relative to control; assay type: cell-based; settings: read-out: Activity
[23] = Cytotoxicity against human L132 cells assessed as cell viability at 3 uM measured after 48 hrs by EZ-Cytox assay relative to control; assay type: cell-based; settings: read-out: Activity
[24] = Cytotoxicity against human L132 cells assessed as cell viability at 10 uM measured after 48 hrs by EZ-Cytox assay relative to control; assay type: cell-based; settings: read-out: Activity
[25] = Cytotoxicity against African green monkey Vero cells assessed as cell viability at 3 uM measured after 48 hrs by EZ-Cytox assay relative to control; assay type: cell-based; settings: chlorocebus sabaeus, read-out: Activity
[26] = system: HCT-116; assay: Cell cycle arrest in human HCT-116 cells assessed as increase in G0/G1-phase accumulation measured after 24 to 48 hrs by propidium iodide staining based flow cytometry; assay type: functional; settings: dose 1.25-5 µM, time 24-48 hrs
[27] = system: HCT-116; assay: Induction of apoptosis in human HCT-116 cells assessed as early apoptotic cells at 1.25 uM measured after 24 hrs by Annexin-V Alexa Fluor488/propidium iodide staining based flow cytometry (reference value: 6.3%); assay type: functional
[28] = system: HCT-116; assay: Induction of apoptosis in human HCT-116 cells assessed as late apoptotic cells at 1.25 uM measured after 24 hrs by Annexin-V Alexa Fluor488/propidium iodide staining based flow cytometry (reference value: 1%); assay type: functional
[29] = system: HCT-116; assay: Induction of apoptosis in human HCT-116 cells assessed as necrotic cells at 1.25 uM measured after 24 hrs by Annexin-V Alexa Fluor488/propidium iodide staining based flow cytometry (reference value: 4.6%); assay type: functional
[30] = system: HCT-116; assay: Induction of apoptosis in human HCT-116 cells assessed as viable cells at 2.5 uM measured after 24 hrs by Annexin-V Alexa Fluor488/propidium iodide staining based flow cytometry (reference value: 88.1%); assay type: functional; settings: read-out: Activity
[31] = system: HCT-116; assay: Induction of apoptosis in human HCT-116 cells assessed as early apoptotic cells at 2.5 uM measured after 24 hrs by Annexin-V Alexa Fluor488/propidium iodide staining based flow cytometry (reference value: 6.3%); assay type: functional
[32] = system: HCT-116; assay: Induction of apoptosis in human HCT-116 cells assessed as late apoptotic cells at 5 uM measured after 24 hrs by Annexin-V Alexa Fluor488/propidium iodide staining based flow cytometry (reference value: 1%); assay type: functional
[33] = system: HCT-116; assay: Induction of apoptosis in human HCT-116 cells assessed as late apoptotic cells at 1.25 uM measured after 48 hrs by Annexin-V Alexa Fluor488/propidium iodide staining based flow cytometry (reference value: 2.2%); assay type: functional
[34] = system: HCT-116; assay: Induction of apoptosis in human HCT-116 cells assessed as viable cells at 2.5 uM measured after 48 hrs by Annexin-V Alexa Fluor488/propidium iodide staining based flow cytometry (reference value: 82.3%); assay type: functional; settings: read-out: Activity
[35] = system: HCT-116; assay: Induction of apoptosis in human HCT-116 cells assessed as early apoptotic cells at 2.5 uM measured after 48 hrs by Annexin-V Alexa Fluor488/propidium iodide staining based flow cytometry (reference value: 7.7%); assay type: functional
[36] = system: HCT-116; assay: Induction of apoptosis in human HCT-116 cells assessed as late apoptotic cells at 2.5 uM measured after 48 hrs by Annexin-V Alexa Fluor488/propidium iodide staining based flow cytometry (reference value: 2.2%); assay type: functional
[37] = system: HCT-116; assay: Induction of apoptosis in human HCT-116 cells assessed as necrotic cells at 2.5 uM measured after 48 hrs by Annexin-V Alexa Fluor488/propidium iodide staining based flow cytometry (reference value: 7.7%); assay type: functional
[38] = biological target: RAF proto-oncogene serine/threonine-protein kinase (Homo sapiens, UniProt P04049); assay: Inhibition of human CRAF using MEK1 (K97R) as substrate in presence of [gamma-33P]ATP by scintillation counting method
Chain of RAF proto-oncogene serine/threonine-protein kinase (P04049 whole entry, the tested form may be a part): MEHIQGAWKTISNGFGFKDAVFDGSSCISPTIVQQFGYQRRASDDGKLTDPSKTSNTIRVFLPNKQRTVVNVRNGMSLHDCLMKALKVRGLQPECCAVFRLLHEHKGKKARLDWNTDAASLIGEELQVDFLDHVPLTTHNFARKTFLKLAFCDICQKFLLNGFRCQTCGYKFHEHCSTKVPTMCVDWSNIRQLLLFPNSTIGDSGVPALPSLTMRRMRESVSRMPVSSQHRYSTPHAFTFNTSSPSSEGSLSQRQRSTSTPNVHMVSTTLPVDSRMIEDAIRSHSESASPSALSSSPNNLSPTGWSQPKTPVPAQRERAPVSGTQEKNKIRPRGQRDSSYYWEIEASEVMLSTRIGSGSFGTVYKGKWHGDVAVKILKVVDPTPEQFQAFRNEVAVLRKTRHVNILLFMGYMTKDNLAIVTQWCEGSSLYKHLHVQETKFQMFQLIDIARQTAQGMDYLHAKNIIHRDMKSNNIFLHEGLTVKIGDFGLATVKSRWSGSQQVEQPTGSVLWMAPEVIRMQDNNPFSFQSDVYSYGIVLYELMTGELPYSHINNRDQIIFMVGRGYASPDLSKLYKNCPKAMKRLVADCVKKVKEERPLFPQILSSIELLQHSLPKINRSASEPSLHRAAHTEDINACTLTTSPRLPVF

[39] = biological target: Epithelial discoidin domain-containing receptor 1 (Homo sapiens, UniProt Q08345); assay: Inhibition of human DDR1 using KKSRGDYMTMQIG as substrate in presence of [gamma-33P]ATP by scintillation counting method
Chain of Epithelial discoidin domain-containing receptor 1 (Q08345 whole entry, the tested form may be a part): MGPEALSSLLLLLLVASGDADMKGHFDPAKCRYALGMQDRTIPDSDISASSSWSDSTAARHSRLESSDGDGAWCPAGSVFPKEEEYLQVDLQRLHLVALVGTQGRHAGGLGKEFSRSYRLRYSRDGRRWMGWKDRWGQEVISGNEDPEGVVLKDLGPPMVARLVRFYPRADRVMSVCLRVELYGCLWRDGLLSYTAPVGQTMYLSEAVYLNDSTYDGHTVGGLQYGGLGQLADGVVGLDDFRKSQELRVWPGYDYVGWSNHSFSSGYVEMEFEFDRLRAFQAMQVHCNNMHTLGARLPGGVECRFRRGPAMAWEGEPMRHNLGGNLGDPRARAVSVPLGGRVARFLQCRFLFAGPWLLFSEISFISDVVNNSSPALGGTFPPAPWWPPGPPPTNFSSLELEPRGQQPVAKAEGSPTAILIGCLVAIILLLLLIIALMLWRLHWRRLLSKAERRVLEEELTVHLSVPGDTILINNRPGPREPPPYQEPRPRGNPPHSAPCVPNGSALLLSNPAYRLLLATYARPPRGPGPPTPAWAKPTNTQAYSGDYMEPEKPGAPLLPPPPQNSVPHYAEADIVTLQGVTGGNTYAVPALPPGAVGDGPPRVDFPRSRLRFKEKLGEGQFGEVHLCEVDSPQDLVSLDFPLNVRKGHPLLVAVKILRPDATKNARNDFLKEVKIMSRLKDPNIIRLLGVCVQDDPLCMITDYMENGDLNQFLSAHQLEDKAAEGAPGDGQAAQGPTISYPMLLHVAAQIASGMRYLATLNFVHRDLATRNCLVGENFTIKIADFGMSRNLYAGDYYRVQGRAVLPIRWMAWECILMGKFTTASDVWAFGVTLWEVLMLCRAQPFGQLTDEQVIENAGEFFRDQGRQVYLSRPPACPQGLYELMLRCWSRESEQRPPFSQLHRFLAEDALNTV

[40] = biological target: Serine/threonine-protein kinase B-raf (Homo sapiens, UniProt P15056); assay: Inhibition of human BRAF using MEK1 (K97R) as substrate in presence of [gamma-33P]ATP by scintillation counting method
Chain of Serine/threonine-protein kinase B-raf (P15056 whole entry): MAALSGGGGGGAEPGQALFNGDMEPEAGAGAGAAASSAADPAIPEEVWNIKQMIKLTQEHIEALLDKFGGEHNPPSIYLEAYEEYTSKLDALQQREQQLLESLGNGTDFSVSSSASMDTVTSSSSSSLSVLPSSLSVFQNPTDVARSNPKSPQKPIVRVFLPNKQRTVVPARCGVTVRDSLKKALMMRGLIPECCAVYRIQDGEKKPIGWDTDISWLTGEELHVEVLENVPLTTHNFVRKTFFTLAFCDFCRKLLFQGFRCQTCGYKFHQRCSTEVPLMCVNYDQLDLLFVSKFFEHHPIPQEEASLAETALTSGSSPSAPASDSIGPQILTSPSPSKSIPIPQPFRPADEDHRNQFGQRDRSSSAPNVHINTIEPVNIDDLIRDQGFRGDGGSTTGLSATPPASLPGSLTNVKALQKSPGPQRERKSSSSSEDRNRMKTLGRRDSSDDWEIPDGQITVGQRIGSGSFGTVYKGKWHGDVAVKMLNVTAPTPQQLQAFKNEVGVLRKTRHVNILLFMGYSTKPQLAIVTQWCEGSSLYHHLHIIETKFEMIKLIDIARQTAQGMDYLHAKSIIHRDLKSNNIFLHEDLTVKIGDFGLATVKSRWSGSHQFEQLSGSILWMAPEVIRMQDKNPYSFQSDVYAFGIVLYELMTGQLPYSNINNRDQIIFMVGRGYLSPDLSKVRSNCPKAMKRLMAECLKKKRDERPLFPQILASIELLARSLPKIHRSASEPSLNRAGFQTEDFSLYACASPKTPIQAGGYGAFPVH

[41] = species on record: Homo sapiens; assay: Selectivity ratio of IC50 for inhibition of human BRAF V600E mutant to IC50 for inhibition of human CRAF

With `COc1cccc2nc(Nc3cccc(NC(=O)c4ccc(N5CCN(C)CC5)c(C(F)(F)F)c4)c3)ccc12` the GI50 [1] was 1070 nM, the GI50 [2] was 1650 nM and the LC50 (concentration killing 50% of cells) [2] was > 50000 nM. The TGI [2] was 6440 nM, the GI50 [3] was 1430 nM and the GI50 [4] was 856 nM. For the same compound, the GI50 [5] was 1650 nM, the GI50 [6] was 964 nM and the GI50 [7] was 937 nM. For the same compound, the GI50 [8] was 968 nM, the GI50 [9] was 967 nM and the LC50 [9] was 3820 nM. For the same compound, the TGI [9] was 1920 nM, the GI50 [10] was 1110 nM and the GI50 [11] was 695 nM. The GI50 [12] was 1360 nM, the GI50 [13] was 1210 nM and the GI50 [14] was 1430 nM. For the same compound, the GI50 [15] was 1500 nM, the GI50 [16] was 1730 nM and the GI50 [17] was 1800 nM. The GI50 [18] was 2010 nM, the GI50 [19] was 851 nM and the LC50 [19] was 4250 nM. The TGI [19] was 1900 nM, the GI50 [20] was 1070 nM and the GI50 [21] was 1000 nM. For the same compound, the viability at 48 h, 1 µM [22] was 97%, the viability at 48 h, 3 µM [23] was 88.6% and the viability at 48 h, 10 µM [24] was 66.1%. The viability at 48 h, 3 µM [25] was 86.9%, the Activity [26] was “Dose-dependent effect” and the Activity [27] was 4.7%. It also gave an Activity [28] of 1.7%, an Activity [29] of 11% and a viability at 2.5 µM [30] of 81.2%. It also gave an Activity [31] of 6.1%, an Activity [32] of 2.2% and an Activity [33] of 1.7%. It also gave a viability at 2.5 µM [34] of 79.5%, an Activity [35] of 14.3% and an Activity [36] of 2%. The Activity [37] was 4.2%, the IC50 [38] was 370 nM and the IC50 [39] was 2250 nM. The IC50 [40] was 2940 nM and the Ratio IC50 [41] was 2.
